The values that follow come from patent publication US20040072801A1, “Sterols bearing pendant allosteric effectors of hemoglobin, and uses thereof” (priority 2002, published 2004).

Series [1] deals with C57B1/6 mice. The series is described as follows: Tolerability and pharmacodynamics of SV184 and SV192 after iv injection. In kind it is in vivo, mouse.
For series [2], the system named is C57B1/6 mice. The description is as above. The class given is in vivo, mouse. On the procedure: The tolerability and pharmacodynamics of the compounds SV184 and SV192 were tested in a small number of C57B1/6 mice. Mice receiving the whole volume of 200 μL of (30 mM) effector solution died immediately after injection or during injection (injection time 10-20 min). Eight mice receiving less than 200 μL of the compound solution survived. These mice were fast breathing and shaking, but recovered after 4 hours. […] Therefore, new derivatives were synthesized in our labs.
The source holds these as a separate data set.

The test system of series [3] is human RBCs in whole blood. Description: P50 of RBCs after in vitro incubation of human whole blood with effector (Hemox Analyzer). The note with it: for P50 Increase % / P50 mm HG EFF:WB: human WB, EFF:WB 1:1.5, 30 mM; for lysis of the RBC: physiological or nearly physiological osmotic pressure, in vitro whole blood.
Series [4] relates to mouse RBCs in whole blood. Description: P50 of RBCs after in vitro incubation of mouse whole blood with effector (Hemox Analyzer). The class given is cell-based. The note with it: for P50 Increase %: mouse WB.
Series [5] concerns the target stripped hemoglobin (Homo sapiens, UniProt P68871). The note with it: pH 7.4, cited from earlier work.
The subject of series [6] is human RBCs. The note with it: large-volume continuous-flow electroporation; cited from earlier work.
Series [7] deals with mice RBC. The class given is in vivo. The note with it: ip 30, 45 and 60 mM; three hours after injection. On the procedure:
Three hours after injection, samples of blood were taken for P50 measurements. […] We have observed the shift of the P50 values in the blood from the injected animals over 3 days.
The P50 shift of RBC is similar to iv injections at concentrations of 30 and 45 mM.

The target of series [8] is T1, C57B1/6 mice free hemoglobin (Mus musculus, UniProt P02088).
T1 construct: P50 values of C57B1/6 mice free hemoglobin after incubation with; from tissue; host or cells: blood of C57Bl/6 mice (inferred; the preparation is not described)
Description: P50 of mouse free hemoglobin after incubation with KF effectors. The class given is biochemical. The note with it: effector 2.5 mM : mouse hemoglobin 2.5 mM, 1:1; pH 7.0. On the procedure:
The pH of the compound solutions was adjusted to approximately 7.1 and effector solution (2.5 mM) and mouse hemoglobin (2.5 mM) were mixed at 1:1 ratio. The osmolarity was adjusted to 218-310 mOsM. Effectors and whole blood (WB) at 1:1.5 were incubated at 37° C. for 60 minutes.
They were tested for P50 right shift with mouse hemoglobin. The pH was adjusted to approximately 7.0 and effector solution (2.5 mM) and mouse hemoglobin (2.5 mM) were mixed at 1:1 ratio. P50 values were measured as before.

Series [9] concerns C57B1/6 mice.
The mark [10] stands for this setting: EFF:WB 1:0.375, 224 mOsM, 30 mM.
[11] abbreviates: EFF:WB 1:0.375, 220 mOsM, 30 mM.

Where “and” joins values, the source holds several entries; their conditions need not be identical. Equal values may be shown once. Read-outs that look alike come from different tables or passages of the source. A value given as a limit tells only on which side of the number the result lay.

Chain of stripped hemoglobin (P69905 2-142 partner limits assumed): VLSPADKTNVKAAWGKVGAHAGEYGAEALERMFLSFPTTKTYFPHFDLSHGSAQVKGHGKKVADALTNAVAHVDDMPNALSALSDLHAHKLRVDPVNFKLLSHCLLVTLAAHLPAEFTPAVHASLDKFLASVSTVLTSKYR
Chain of stripped hemoglobin (P68871 2-147 limits assumed): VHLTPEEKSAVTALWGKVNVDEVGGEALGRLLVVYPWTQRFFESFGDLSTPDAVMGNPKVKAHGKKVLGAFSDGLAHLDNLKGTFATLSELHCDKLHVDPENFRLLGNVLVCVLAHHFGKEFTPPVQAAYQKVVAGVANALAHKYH
T1 sequence (P01942 2-142 partner limits assumed): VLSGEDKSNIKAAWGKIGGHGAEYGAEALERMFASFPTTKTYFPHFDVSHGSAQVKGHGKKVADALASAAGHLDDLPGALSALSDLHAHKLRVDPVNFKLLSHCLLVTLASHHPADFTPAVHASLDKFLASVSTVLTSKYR
T1 sequence (P02088 2-147 limits assumed): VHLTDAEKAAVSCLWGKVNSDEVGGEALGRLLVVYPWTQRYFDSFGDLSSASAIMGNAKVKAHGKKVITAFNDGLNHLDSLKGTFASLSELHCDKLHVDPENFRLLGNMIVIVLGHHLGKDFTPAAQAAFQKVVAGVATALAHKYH

For `CC(C)CCCC(C)C1CCC2C3CC=C4CC(OC(=O)OP(=O)([O-])OC5C(OP(=O)([O-])[O-])C(OP(=O)([O-])[O-])C(OP(=O)([O-])[O-])C(OP(=O)([O-])[O-])C5OP(=O)([O-])[O-])CCC4(C)C3CCC12C.[Na+].[Na+].[Na+].[Na+].[Na+].[Na+].[Na+].[Na+].[Na+].[Na+].[Na+]` (centres unmarked) [SV184, Inositol hexaphosphate-cholesteroloxycarbonyl, undecanyl sod ium salt], the “Shift of P50 %” value in [1] (iv 150 μL of 30 nM) is <5%. Besides, the “Number of mice died” value in series [1] (iv 150 μL of 30 mM, 4 mice injected) stood at 0; in series [1] (iv 200 μL of 30 mM, 1 mouse injected), 1. Also, in series [2] (IV, WB mouse, 1 h, saline control P50=33.3), the “P50 (FIG. 2, Curve B)” value was 41.0. For the same molecule, the “% increase of P50 (FIG. 2)” value in series [2] (IV, WB mouse, 1 h, versus saline control) was 23.12%. Besides, the “toxicity upon iv injection in mice” value in series [2] (iv, 30 mM effector solution) is given as “high level of toxicity”. In [2] (less than 200 μL iv, blood taken 4 and 24 hours after injection), the “shift of P50 in blood of surviving mice” value is given as “did not show a significant shift of P50”. Besides, the “P50 Increase %” value in series [3] (232 mOsM) was determined as 16%; in series [4] (setting [10]), 15%; in series [4] (EFF:WB 1:1.5, 310 mOsM, 30 mM), 9%. Also, the “P50 mm HG EFF:WB” value was found to be 30.4 mm Hg in series [3] (232 mOsM); 30 mm Hg in series [3] (310 mOsM); 44.3 mm Hg in [4] (setting [10]); 41.8 mm Hg in [4] (EFF:WB 1:1.5, 310 mOsM, 30 mM).
For `CC(C)CCCC(C)C1CCC2C3CC=C4CC(OC(=O)OP(=O)(O)OC5C(OP(=O)(O)O)C(OP(=O)(O)O)C(OP(=O)(O)O)C(OP(=O)(O)O)C5OP(=O)(O)O)CCC4(C)C3CCC12C.CN(C)C1CCCCC1.CN(C)C1CCCCC1.CN(C)C1CCCCC1.CN(C)C1CCCCC1.CN(C)C1CCCCC1.CN(C)C1CCCCC1.CN(C)C1CCCCC1.CN(C)C1CCCCC1` (centres unmarked) [SV192bis], the “P50 Increase %” value was determined as 6% in [3] (220 mOsM), 6% in series [3] (272 mOsM) and 13% in series [3] (306 mOsM). For the same molecule, the “P50 mm HG EFF:WB” value is reported as 26.6 mm Hg in series [3] (220 mOsM), 24 mm Hg in series [3] (272 mOsM) and 28.3 mm Hg in [3] (306 mOsM). For the same molecule, the “lysis of the RBC” value in series [3] is “no lysis”.
With `O=P(O)(O)O[C@H]1[C@H](OP(=O)(O)O)[C@@H](OP(=O)(O)O)[C@H](OP(=O)(O)O)[C@@H](OP(=O)(O)O)[C@H]1OP(=O)(O)O` [IHP, inositol hexaphosphate], the “O2 half-saturation pressure P(O2)(½) of stripped hemoglobin” value in series [5] (25 C, without effector 4.3) is 48.4 mm Hg; in [5] (37 C, without effector 9.3), 96.4 mm Hg. For the same molecule, the “P50 of human RBCs with encapsulated IHP” value in [6] is on record as “approximately 50 torr”.
As for `CC(C)CCCC(C)C1CCC2C3CC=C4CC(OC(=O)OP(=O)(O)OC5C(OP(=O)(O)O)C(OP(=O)(O)O)C(OP(=O)(O)O)C(OP(=O)(O)O)C5OP(=O)(O)O)CCC4(C)C3CCC12C.CN(C)C1CCCCC1.CN(C)C1CCCCC1.CN(C)C1CCCCC1.CN(C)C1CCCCC1.CN(C)C1CCCCC1.CN(C)C1CCCCC1.CN(C)C1CCCCC1.CN(C)C1CCCCC1` (centres unmarked) [SV192ter], the “P50 Increase %” value in series [3] (202 mOsM) is 5%; in series [3] (258 mOsM), 2%; in series [3] (274 mOsM), 3%; in [3] (303 mOsM) it was 4%; in series [4] (setting [11]) it was 8%; in series [4] (EFF:WB 1:1.5, 264 mOsM, 15 mM) it was 2%. The “P50 Increase %” value in [4] (EFF:WB 1:1.5, 276 mOsM, 30 mM) was 5%; in series [4] (EFF:WB 1:1.5, 283 mOsM, 5 mM), 7%; in series [4] (EFF:WB 1:1.5, 314 mOsM, 60 mM), 4%; in series [4] (EFF:WB 1:1.5, 320 mOsM, 30 mM), 8% and 13% and 9%; in [4] (EFF:WB 1:1.5, 320 mOsM, 50 mM), 5%. Besides, the “P50 mm HG EFF:WB” value was 26.3 mm Hg in series [3] (202 mOsM); 25.6 mm Hg in series [3] (258 mOsM); 26.8 mm Hg in series [3] (274 mOsM); 26.2 mm Hg in series [3] (303 mOsM); 46.4 mm Hg in series [4] (setting [11]); 42.2 mm Hg in [4] (EFF:WB 1:1.5, 264 mOsM, 15 mM). The “P50 mm HG EFF:WB” value in series [4] (EFF:WB 1:1.5, 276 mOsM, 30 mM) was 43.5 mm Hg; in series [4] (EFF:WB 1:1.5, 283 mOsM, 5 mM), 43.1 mm Hg; in [4] (EFF:WB 1:1.5, 314 mOsM, 60 mM), 43.1 mm Hg; in [4] (EFF:WB 1:1.5, 320 mOsM, 30 mM), 41.4 mm Hg and 43.4 mm Hg and 41.9 mm Hg; in series [4] (EFF:WB 1:1.5, 320 mOsM, 50 mM), 42.6 mm Hg. For the same molecule, the “lysis of the RBC” value in series [3] is listed as “no lysis”.
Regarding `O=C(O)C(COP(=O)(O)O)OP(=O)(O)O` (centres unmarked) [2,3-Diphosphoglycerate], the “O2 half-saturation pressure P(O2)(½) of stripped hemoglobin” value in series [5] (25 C, without effector 4.3) was 12.0 mm Hg; in series [5] (37 C, without effector 9.3), 23.7 mm Hg.
With “Inositol hexaphosphate-cholesteroloxycarbonyl, hepta N,N-dimethyl-cyclohexylammonium salt [KF16]”, the “right shift of P50 after ip injection” value in series [7] is “strong right shift of P50”. For the same molecule, in [8], the “P50 Increase %” value stood at 90% and the “P50 mm Hg EFF/fHb” value was determined as 52.17 mm Hg. In addition, the “P50 mm Hg EFF:WB” value in series [4] (1:1.5, 283 mOsM, pH 7.1, 30 mM, 60 min 37° C.) was 36.14 mm Hg. For the same molecule, the “P50 Increase %” value in series [9] (iv 200 μL of 60 mM, 2 h after injection) is recorded as > 10%. Also, the “right shift in P50 value at lower concentrations” value in [9] (iv, concentrations lower than 60 mM) is 6-9%.
On to `CC(C)CCCC(C)C1CCC2C3CC=C4CC(OC(=O)OP(=O)(O)OC5C(OP(=O)(O)O)C(OP(=O)(O)O)C(OP(=O)(O)O)C(OP(=O)(O)O)C5OP(=O)(O)O)CCC4(C)C3CCC12C.CCCCN(CCCC)CCCC.CCCCN(CCCC)CCCC.CCCCN(CCCC)CCCC.CCCCN(CCCC)CCCC.CCCCN(CCCC)CCCC.CCCCN(CCCC)CCCC` (centres unmarked) [Effector 2a, Inositol hexaphosphate-cholesteroloxycarbonyl, hexa tributyl-ammonium salt], for which the “lysis of red blood cells (hemolysis)” value in series [3] (tested on whole blood) was “triggered the lysis of the red blood cells”.
